Laboratory results from patent US8981087B2, “Benzo [E] [1,3] oxazin-4-one derivatives as phosphoinositide 3-kinase inhibitors” (Karus Therapeutics Limited, priority 2009, dated 2015).
Read-outs that look alike come from different tables or passages of the source.

Key:
[1] = biological target: PI3K-p110β (Homo sapiens, UniProt P42338); experiment: Biochemical PI3K-p110β inhibition
[2] = biological target: PI3K-p110γ (Homo sapiens, UniProt P48736); experiment: Biochemical PI3K-p110γ inhibition
[3] = biological target: PI3K-p110 α (Homo sapiens, UniProt P42336); experiment: Biochemical PI3K-p110α inhibition
PI3K-p110 α, sequence (P42336 whole entry): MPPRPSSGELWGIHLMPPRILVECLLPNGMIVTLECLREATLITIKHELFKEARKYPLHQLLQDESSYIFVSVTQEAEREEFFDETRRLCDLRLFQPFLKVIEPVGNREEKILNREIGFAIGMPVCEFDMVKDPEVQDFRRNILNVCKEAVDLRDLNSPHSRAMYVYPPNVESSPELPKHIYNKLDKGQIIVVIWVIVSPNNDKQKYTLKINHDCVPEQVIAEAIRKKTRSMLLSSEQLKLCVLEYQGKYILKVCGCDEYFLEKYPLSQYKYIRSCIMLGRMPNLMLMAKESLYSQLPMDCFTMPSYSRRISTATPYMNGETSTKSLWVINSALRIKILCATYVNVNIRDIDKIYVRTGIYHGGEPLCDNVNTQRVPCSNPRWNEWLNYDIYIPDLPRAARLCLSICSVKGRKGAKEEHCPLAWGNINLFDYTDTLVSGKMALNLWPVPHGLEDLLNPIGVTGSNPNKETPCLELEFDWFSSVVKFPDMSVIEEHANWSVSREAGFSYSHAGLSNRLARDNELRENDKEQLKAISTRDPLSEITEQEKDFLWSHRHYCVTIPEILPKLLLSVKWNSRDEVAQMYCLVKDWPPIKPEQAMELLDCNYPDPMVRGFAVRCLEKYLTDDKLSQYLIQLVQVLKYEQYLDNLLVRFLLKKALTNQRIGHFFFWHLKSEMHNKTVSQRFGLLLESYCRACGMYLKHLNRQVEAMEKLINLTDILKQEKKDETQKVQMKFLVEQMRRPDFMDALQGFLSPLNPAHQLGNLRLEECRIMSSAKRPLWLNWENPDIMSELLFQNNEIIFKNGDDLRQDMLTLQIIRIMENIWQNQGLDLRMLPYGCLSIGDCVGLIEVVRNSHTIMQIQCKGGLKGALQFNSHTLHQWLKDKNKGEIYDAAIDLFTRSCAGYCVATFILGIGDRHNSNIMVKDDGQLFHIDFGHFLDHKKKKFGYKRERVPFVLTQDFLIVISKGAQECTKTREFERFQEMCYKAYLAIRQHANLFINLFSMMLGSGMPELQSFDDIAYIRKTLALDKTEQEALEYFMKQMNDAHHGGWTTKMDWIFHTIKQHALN
PI3K-p110 α, sequence (P27986 whole entry partner): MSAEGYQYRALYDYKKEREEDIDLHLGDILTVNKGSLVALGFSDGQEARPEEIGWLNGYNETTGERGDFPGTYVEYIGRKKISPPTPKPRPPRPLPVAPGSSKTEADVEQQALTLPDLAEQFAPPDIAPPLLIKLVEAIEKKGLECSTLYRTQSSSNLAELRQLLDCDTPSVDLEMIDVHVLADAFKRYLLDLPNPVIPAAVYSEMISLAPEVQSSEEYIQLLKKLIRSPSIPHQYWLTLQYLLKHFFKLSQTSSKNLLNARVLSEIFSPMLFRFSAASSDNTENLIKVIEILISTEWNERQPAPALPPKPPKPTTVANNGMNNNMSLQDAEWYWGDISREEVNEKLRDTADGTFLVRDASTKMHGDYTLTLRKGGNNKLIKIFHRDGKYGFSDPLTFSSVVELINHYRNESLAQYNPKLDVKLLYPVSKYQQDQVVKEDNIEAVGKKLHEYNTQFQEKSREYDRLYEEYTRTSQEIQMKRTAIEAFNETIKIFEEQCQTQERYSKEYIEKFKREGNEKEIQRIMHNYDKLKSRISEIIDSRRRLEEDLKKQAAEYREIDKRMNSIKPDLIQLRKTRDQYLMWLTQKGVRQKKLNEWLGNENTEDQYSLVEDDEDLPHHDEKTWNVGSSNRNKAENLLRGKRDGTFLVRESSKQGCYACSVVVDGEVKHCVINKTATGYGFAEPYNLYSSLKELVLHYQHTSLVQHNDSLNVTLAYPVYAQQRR

[4] = biological target: PI3K-p110δ (Homo sapiens, UniProt O00329); experiment: Biochemical PI3K-p110δ inhibition
PI3K-p110δ, sequence (O00329 whole entry): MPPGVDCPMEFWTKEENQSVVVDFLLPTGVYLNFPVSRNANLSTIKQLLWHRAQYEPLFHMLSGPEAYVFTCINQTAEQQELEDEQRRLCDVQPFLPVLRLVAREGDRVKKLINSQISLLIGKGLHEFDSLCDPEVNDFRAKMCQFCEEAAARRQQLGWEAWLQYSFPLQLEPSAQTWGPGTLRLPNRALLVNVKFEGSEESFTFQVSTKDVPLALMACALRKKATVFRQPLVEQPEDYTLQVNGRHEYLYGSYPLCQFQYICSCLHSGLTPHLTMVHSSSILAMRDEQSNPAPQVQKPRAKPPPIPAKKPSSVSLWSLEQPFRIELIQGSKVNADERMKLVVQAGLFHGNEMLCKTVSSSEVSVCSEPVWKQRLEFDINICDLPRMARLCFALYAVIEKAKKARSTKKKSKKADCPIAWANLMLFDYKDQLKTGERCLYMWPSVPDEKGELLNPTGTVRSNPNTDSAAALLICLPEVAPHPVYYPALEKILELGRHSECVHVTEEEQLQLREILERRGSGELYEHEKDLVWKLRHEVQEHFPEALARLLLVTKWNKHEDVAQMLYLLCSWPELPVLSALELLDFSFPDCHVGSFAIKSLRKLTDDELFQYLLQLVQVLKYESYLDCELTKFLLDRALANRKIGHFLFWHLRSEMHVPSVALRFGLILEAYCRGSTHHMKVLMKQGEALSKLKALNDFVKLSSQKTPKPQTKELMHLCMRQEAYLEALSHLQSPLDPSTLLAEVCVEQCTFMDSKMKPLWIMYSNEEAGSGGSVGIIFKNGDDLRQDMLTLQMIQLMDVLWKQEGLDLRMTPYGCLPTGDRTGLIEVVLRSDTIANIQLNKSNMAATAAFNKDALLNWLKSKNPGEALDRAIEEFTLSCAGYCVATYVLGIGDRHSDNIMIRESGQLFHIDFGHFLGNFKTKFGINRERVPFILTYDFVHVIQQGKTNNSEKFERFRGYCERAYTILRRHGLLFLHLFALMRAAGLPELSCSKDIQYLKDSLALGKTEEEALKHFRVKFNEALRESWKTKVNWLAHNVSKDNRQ
PI3K-p110δ, sequence (P27986 whole entry partner): as the sequence (P27986 whole entry partner) above

PI3K-p110β, sequence (P42338 whole entry): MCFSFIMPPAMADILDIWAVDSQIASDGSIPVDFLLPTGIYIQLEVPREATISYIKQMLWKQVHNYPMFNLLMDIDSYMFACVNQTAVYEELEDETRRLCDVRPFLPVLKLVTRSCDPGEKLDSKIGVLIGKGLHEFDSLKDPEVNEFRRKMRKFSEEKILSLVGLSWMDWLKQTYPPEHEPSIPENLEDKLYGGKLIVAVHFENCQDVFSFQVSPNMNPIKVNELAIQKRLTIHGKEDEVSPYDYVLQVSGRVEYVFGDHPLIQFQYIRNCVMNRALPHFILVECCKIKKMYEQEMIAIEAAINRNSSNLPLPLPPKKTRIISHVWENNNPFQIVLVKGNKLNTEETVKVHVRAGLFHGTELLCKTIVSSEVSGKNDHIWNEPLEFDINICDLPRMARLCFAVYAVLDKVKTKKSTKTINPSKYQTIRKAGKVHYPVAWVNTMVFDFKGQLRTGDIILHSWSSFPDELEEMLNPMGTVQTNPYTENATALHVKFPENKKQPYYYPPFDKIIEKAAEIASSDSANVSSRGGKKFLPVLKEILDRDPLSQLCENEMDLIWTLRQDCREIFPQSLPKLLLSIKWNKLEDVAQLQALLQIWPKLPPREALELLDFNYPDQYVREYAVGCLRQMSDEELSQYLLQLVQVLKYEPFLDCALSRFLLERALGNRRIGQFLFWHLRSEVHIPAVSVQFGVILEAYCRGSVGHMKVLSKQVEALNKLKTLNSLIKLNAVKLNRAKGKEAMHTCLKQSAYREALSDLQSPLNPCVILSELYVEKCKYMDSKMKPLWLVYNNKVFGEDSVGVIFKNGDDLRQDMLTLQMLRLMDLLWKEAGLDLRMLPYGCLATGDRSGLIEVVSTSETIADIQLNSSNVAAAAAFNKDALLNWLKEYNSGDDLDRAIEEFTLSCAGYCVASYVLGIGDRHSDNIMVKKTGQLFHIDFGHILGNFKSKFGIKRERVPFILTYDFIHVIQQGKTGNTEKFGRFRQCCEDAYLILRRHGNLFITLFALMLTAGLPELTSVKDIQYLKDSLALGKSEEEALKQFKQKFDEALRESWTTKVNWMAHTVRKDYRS
PI3K-p110β, sequence (P27986 whole entry partner): as the sequence (P27986 whole entry partner) above
PI3K-p110γ, sequence (P48736 whole entry): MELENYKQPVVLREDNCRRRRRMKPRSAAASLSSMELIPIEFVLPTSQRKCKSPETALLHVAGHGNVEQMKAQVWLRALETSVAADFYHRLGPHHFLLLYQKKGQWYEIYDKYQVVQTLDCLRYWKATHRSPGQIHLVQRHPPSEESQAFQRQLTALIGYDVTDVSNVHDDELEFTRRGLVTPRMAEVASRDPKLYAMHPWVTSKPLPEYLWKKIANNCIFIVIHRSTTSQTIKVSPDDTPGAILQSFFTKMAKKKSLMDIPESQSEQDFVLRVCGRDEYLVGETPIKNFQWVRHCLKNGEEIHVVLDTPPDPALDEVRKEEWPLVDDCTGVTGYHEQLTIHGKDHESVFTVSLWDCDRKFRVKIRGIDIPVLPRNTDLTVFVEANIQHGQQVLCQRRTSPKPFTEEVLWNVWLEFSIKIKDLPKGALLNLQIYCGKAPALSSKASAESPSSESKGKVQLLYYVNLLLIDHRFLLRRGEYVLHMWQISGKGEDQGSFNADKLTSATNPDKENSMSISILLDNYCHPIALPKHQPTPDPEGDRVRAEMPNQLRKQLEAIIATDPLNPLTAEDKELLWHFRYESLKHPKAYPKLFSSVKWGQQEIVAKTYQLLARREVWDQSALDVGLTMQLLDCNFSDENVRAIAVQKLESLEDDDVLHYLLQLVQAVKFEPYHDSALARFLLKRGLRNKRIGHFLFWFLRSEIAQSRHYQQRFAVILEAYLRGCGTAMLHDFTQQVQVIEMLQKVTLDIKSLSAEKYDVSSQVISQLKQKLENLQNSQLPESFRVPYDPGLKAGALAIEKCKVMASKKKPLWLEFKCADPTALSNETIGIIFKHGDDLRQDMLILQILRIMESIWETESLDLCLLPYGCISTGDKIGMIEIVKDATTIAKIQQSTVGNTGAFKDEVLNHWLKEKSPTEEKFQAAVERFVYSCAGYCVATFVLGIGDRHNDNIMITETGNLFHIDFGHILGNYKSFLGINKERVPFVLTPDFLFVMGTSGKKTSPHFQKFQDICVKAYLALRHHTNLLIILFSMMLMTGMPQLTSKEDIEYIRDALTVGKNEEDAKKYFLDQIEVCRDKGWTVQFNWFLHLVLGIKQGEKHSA

Row | SMILES | IC50 ([1]; Class IA enzyme, read-out: IC50 PI3K-p110β (uM) (Class IA Enzyme)) [µM] | class IA/IB PI3K selectivity ([1]; compared with industry-standard inhibitor LY294002, p110β vs p110γ) | IC50 ([2]; Class IB enzyme, read-out: IC50 PI3K-p110γ (uM) (Class IB Enzyme)) [µM] | IC50 [3] [nM] | IC50 ([1]; read-out: IC50 PI3K-p110β) [µM] | selectivity for PI3K-p110β ([1]; versus p110α, p110δ, p110γ) | IC50 [4] [nM] | IC50 ([2]; read-out: IC50 PI3K-p110γ) [µM]
1 | Nc1ccc(-c2cccc3c(=O)nc(N4CCOCC4)oc23)cc1 [Compound A, 8-(4-aminophenyl)-2-morpholino-4H-benzo[e][1,3]oxazin-4-one] | 2.34 | greater class IA/IB PI3K selectivity compared with industry-standard inhibitor, LY294002 | 20.5 |  |  |  |  | 
2 | Nc1ccc(-c2cccc3c(=O)nc(N4CCOCC4)oc23)c(F)c1 [Compound B, 8-(4-Amino-2-fluoro-phenyl)-2-morpholin-4-yl-benzo[e][1,3]oxazin-4-one] |  |  |  | 3410 | 0.538 | displays selectivity for PI3K-p110β | 1690 | 17.8
